In PubChem BioAssay AID330 (DTP/NCI, 2004):
Values joined by “and” are separate entries in the source; they are usually repeats but may differ in a detail not shown here. Equal entries are not always repeated. Toxic doses and inconclusive results are not listed.

Test system: P388 leukemia ip, CD2F1 mice, survival T/C
Test: NCI In Vivo Anticancer Drug Screen. Data for tumor model P388 Leukemia (intraperitoneal) in CD2F1 (CDF1) mice
Conditions: endpoint: median survival time, higher = longer survival
Method in brief: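 Mice carrying the transplanted tumor received test compound or vehicle. Survival was recorded in each group, and the value is the treated-group measurement divided by that of the vehicle-treated control group.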

[1] = dose: 100.0 mg/kg/injection, schedule: Q04DX003 (ip), vehicle: saline
[2] = dose: 200.0 mg/kg/injection, schedule: Q04DX003 (ip), vehicle: saline
[3] = dose: 240.0 mg/kg/injection, schedule: Q01DX005 (ip), vehicle: Klucel (hydroxypropylcellulose) (HPC)
[4] = dose: 50.0 mg/kg/injection, schedule: Q01DX005 (ip), vehicle: Klucel (hydroxypropylcellulose) (HPC)
[5] = dose: 100.0 mg/kg/injection, schedule: Q01DX005 (ip), vehicle: Klucel (hydroxypropylcellulose) (HPC)
[6] = dose: 60.0 mg/kg/injection, schedule: Q01DX005 (ip), vehicle: Klucel (hydroxypropylcellulose) (HPC)
[7] = dose: 120.0 mg/kg/injection, schedule: Q01DX005 (ip), vehicle: Klucel (hydroxypropylcellulose) (HPC)
[8] = dose: 12.5 mg/kg/injection, schedule: Q01DX009 (ip), vehicle: saline with Tween-80
[9] = dose: 25.0 mg/kg/injection, schedule: Q01DX009 (ip), vehicle: saline with Tween-80
[10] = dose: 50.0 mg/kg/injection, schedule: Q01DX009 (ip), vehicle: saline with Tween-80
[11] = dose: 100.0 mg/kg/injection, schedule: Q01DX009 (ip), vehicle: saline with Tween-80
[12] = dose: 12.5 mg/kg/injection, schedule: Q04DX003 (ip), vehicle: saline with Tween-80
[13] = dose: 25.0 mg/kg/injection, schedule: Q04DX003 (ip), vehicle: saline with Tween-80
[14] = dose: 50.0 mg/kg/injection, schedule: Q04DX003 (ip), vehicle: saline with Tween-80

CC12CCC(=O)C=C1CCCC2=O (stereo unspecified)
T/C (dose: 50.0 mg/kg/injection, schedule: Q04DX003 (ip), vehicle: saline): 95 % of control | T/C [1]: 100 % of control | T/C [2]: 90 % of control

c1cc(-n2nnc3cnccc32)ccn1
T/C (dose: 3.12 mg/kg/injection, schedule: Q01DX009 (ip), vehicle: saline): 91 % of control | T/C (dose: 6.25 mg/kg/injection, schedule: Q01DX009 (ip), vehicle: saline): 100 % of control | T/C (dose: 6.25 mg/kg/injection, schedule: Q04DX003 (ip), vehicle: saline): 109 % of control | T/C (dose: 12.5 mg/kg/injection, schedule: Q01DX009 (ip), vehicle: saline): 98 % of control | T/C (dose: 12.5 mg/kg/injection, schedule: Q04DX003 (ip), vehicle: saline): 104 % of control | T/C (dose: 25.0 mg/kg/injection, schedule: Q01DX009 (ip), vehicle: suspension in saline): 109 % of control | T/C (dose: 25.0 mg/kg/injection, schedule: Q04DX003 (ip), vehicle: saline): 100 % of control

CC(C)N1C(Nc2ccccn2)C(C)(C)C(C)(C)C1Nc1ccccn1 (stereo unspecified)
T/C (dose: 30.0 mg/kg/injection, schedule: Q01DX005 (ip), vehicle: Klucel (hydroxypropylcellulose) (HPC)): 121 % of control | T/C [3]: 151 % of control and 164 % of control

O=C1OCC2CC3c4ccccc4C12c1ccccc13 (stereo unspecified)
T/C (dose: 25.0 mg/kg/injection, schedule: Q01DX001 (ip), vehicle: Klucel (hydroxypropylcellulose) (HPC)): 100 % of control | T/C (dose: 50.0 mg/kg/injection, schedule: Q01DX001 (ip), vehicle: Klucel (hydroxypropylcellulose) (HPC)): 94 % of control | T/C (dose: 100.0 mg/kg/injection, schedule: Q01DX001 (ip), vehicle: Klucel (hydroxypropylcellulose) (HPC)): 100 % of control | T/C (dose: 200.0 mg/kg/injection, schedule: Q01DX001 (ip), vehicle: Klucel (hydroxypropylcellulose) (HPC)): 103 % of control

Nc1cccc2c1C(=O)c1ccc(C(=O)O)cc1C2=O
T/C [4]: 101 % of control | T/C [5]: 104 % of control

COC(OC)C1(O)CC(C(C)C)OC(=O)N1 (stereo unspecified)
T/C [1]: 100 % of control | T/C [2]: 108 % of control | T/C (dose: 400.0 mg/kg/injection, schedule: Q04DX003 (ip), vehicle: saline): 100 % of control

Cc1nn(-c2ccccc2)c2c1C(=O)CC(C)O2 (stereo unspecified)
T/C [6]: 93 % of control | T/C [7]: 91 % of control

O=C1NC2(CCCC2)C(=O)N1CCCN(CCCl)CCCl
T/C (dose: 1.5 mg/kg/injection, schedule: Q01DX005 (ip), vehicle: saline): 173 % of control | T/C (dose: 3.0 mg/kg/injection, schedule: Q01DX005 (ip), vehicle: saline): 176 % of control and 185 % of control | T/C (dose: 6.0 mg/kg/injection, schedule: Q01DX005 (ip), vehicle: saline): 179 % of control and 204 % of control | T/C (dose: 12.0 mg/kg/injection, schedule: Q01DX005 (ip), vehicle: saline): 203 % of control and 288 % of control

CCCCCCCCCCCCCCCCN(CC)CC
T/C (dose: 2.5 mg/kg/injection, schedule: Q01DX009 (ip), vehicle: saline): 105 % of control | T/C (dose: 5.0 mg/kg/injection, schedule: Q01DX009 (ip), vehicle: saline): 108 % of control | T/C (dose: 10.0 mg/kg/injection, schedule: Q01DX009 (ip), vehicle: saline): 103 % of control

COc1cccc(CN2CCCN(/N=C/c3c4c(O)c5c(O)c(C)c6c(c5c3O)C(=O)C(C)(O/C=C/C(OC)C(C)C(OC(C)=O)C(C)C(O)C(C)C(O)C(C)/C=C/C=C(/C)C(=O)N4)O6)CC2)c1 (stereo unspecified)
T/C [8]: 108 % of control | T/C [9]: 109 % of control | T/C [10]: 103 % of control and 108 % of control | T/C [11]: 115 % of control

O=S(=O)(O/C(=C(\OS(=O)(=O)C(F)(F)C(F)(F)C(F)(F)C(F)(F)F)c1ccccc1)c1ccccc1)C(F)(F)C(F)(F)C(F)(F)C(F)(F)F
T/C (dose: 60.0 mg/kg/injection, schedule: Q01DX005 (ip), vehicle: saline with Tween-80): 99 % of control | T/C (dose: 120.0 mg/kg/injection, schedule: Q01DX005 (ip), vehicle: saline with Tween-80): 107 % of control | T/C (dose: 240.0 mg/kg/injection, schedule: Q01DX005 (ip), vehicle: saline with Tween-80): 99 % of control

COC(=O)c1cc(-c2ccncc2)[nH]c(=O)c1C#N
T/C (dose: 60.0 mg/kg/injection, schedule: Q01DX005 (ip), vehicle: saline): 101 % of control | T/C (dose: 120.0 mg/kg/injection, schedule: Q01DX005 (ip), vehicle: saline): 99 % of control | T/C (dose: 240.0 mg/kg/injection, schedule: Q01DX005 (ip), vehicle: saline): 94 % of control

Cc1cc(C2(c3cc(C)c(O)c(CN(CC(=O)O)CC(=O)O)c3)OC(=O)c3ccccc32)cc(CN(CC(=O)O)CC(=O)O)c1O
T/C [10]: 100 % of control | T/C [11]: 100 % of control | T/C (dose: 200.0 mg/kg/injection, schedule: Q01DX009 (ip), vehicle: saline with Tween-80): 97 % of control

CCCNc1nc2c(s1)c1c(O)c3c(O)c(C)c4c(c32)C(=O)C(C)(O/C=C\C(OC)C(C)C(OC(C)=O)C(C)C(O)C(C)C(O)C(C)/C=C/C=C(/C)C(=O)N1)O4 (stereo unspecified)
T/C (dose: 25.0 mg/kg/injection, schedule: Q01DX009 (ip), vehicle: Klucel (hydroxypropylcellulose) (HPC)): 92 % of control | T/C (dose: 50.0 mg/kg/injection, schedule: Q01DX009 (ip), vehicle: Klucel (hydroxypropylcellulose) (HPC)): 107 % of control | T/C (dose: 100.0 mg/kg/injection, schedule: Q01DX009 (ip), vehicle: Klucel (hydroxypropylcellulose) (HPC)): 99 % of control | T/C (dose: 200.0 mg/kg/injection, schedule: Q01DX009 (ip), vehicle: Klucel (hydroxypropylcellulose) (HPC)): 100 % of control

COc1cc(/C=C2/C(=O)N(c3ccccc3)N=C2C)cc(OC)c1OC
T/C [6]: 108 % of control | T/C [7]: 104 % of control | T/C [3]: 105 % of control

CC1=C(C(N)=O)C(c2ccc(O)cc2)NC(=S)N1 (stereo unspecified)
T/C [6]: 101 % of control | T/C [7]: 101 % of control | T/C [3]: 101 % of control

O=C1CN(c2cccc(C(F)(F)F)c2)C(=O)CN1/N=C/c1ccc(O)c(O)c1
T/C (dose: 6.25 mg/kg/injection, schedule: Q01DX005 (ip), vehicle: saline with Tween-80): 100 % of control | T/C (dose: 12.5 mg/kg/injection, schedule: Q01DX005 (ip), vehicle: saline with Tween-80): 97 % of control | T/C (dose: 25.0 mg/kg/injection, schedule: Q01DX005 (ip), vehicle: saline with Tween-80): 96 % of control

NC(=S)N=Nc1c(O)n(C2OC(CO)C(O)C(O)C2O)c2ccccc12 (stereo unspecified)
T/C (dose: 32.0 mg/kg/injection, schedule: Q01DX002 (ip), vehicle: saline with Tween-80): 109 % of control and 112 % of control | T/C (dose: 64.0 mg/kg/injection, schedule: Q01DX002 (ip), vehicle: saline with Tween-80): 114 % of control and 116 % of control | T/C (dose: 128.0 mg/kg/injection, schedule: Q01DX002 (ip), vehicle: saline with Tween-80): 98 % of control and 90 % of control

Cc1cc(N(CCCl)CCCl)ccc1N=Nc1ccccc1C(=O)[O-].Cc1cc(N(CCCl)CCCl)ccc1N=Nc1ccccc1C(=O)[O-].[Cu+2]
T/C (dose: 12.0 mg/kg/injection, schedule: Q04DX003 (ip), vehicle: saline with Tween-80): 150 % of control | T/C [8]: 209 % of control | T/C [12]: 154 % of control | T/C [9]: 95 % of control | T/C [13]: 195 % of control | T/C [14]: 95 % of control | T/C (dose: 375.0 micrograms/kg/injection, schedule: Q04DX003 (ip), vehicle: saline): 109 % of control | T/C (dose: 750.0 micrograms/kg/injection, schedule: Q04DX003 (ip), vehicle: saline): 109 % of control | T/C (dose: 1500.0 micrograms/kg/injection, schedule: Q04DX003 (ip), vehicle: saline): 104 % of control

c1ccc2nc(N3CCCC3)c(N3CCCCC3)nc2c1
T/C [4]: 102 % of control | T/C [5]: 94 % of control | T/C (dose: 200.0 mg/kg/injection, schedule: Q01DX005 (ip), vehicle: Klucel (hydroxypropylcellulose) (HPC)): 100 % of control

CC(C)C(NC(=O)c1ccccc1)C(=O)O (stereo unspecified)
T/C (dose: 50.0 mg/kg/injection, schedule: Q01DX005 (ip), vehicle: saline with Tween-80): 98 % of control | T/C (dose: 100.0 mg/kg/injection, schedule: Q01DX005 (ip), vehicle: saline with Tween-80): 93 % of control | T/C (dose: 200.0 mg/kg/injection, schedule: Q01DX005 (ip), vehicle: saline with Tween-80): 88 % of control

CCC(=O)Oc1ccccc1C
T/C [12]: 103 % of control | T/C [13]: 105 % of control | T/C [14]: 103 % of control | T/C (dose: 100.0 mg/kg/injection, schedule: Q04DX003 (ip), vehicle: saline with Tween-80): 103 % of control

CCOC(=O)CCC(=O)Oc1ccc2c(c1OC(=O)CCC(=O)OCC)C(=O)c1ccccc1C2=O
T/C [6]: 97 % of control | T/C [7]: 97 % of control | T/C [3]: 95 % of control
